Article PMC4710893 (ACS Combinatorial Science, 2015)
“And” between values parts separate entries of the source, which are not always exact repeats. Identical values can stand only once.

Legend:
K-Ras G12V [1] = target: T1, K-Ras G12V (Homo sapiens, UniProt P01116, G12V); assay: FA-based competition assay with DCAI; format: binding
K-Ras = conditions: read-out: KD, DCAI binding to K-Ras; cited from earlier work
K-Ras G12V [2] = target: T1, K-Ras G12V; assay: Fluorescence anisotropy; format: binding
[3] = tested on: H441 human lung cancer cells; assay: MTT cell viability assay, H441; format: cell-based; conditions: 0-40 μM
[4] = tested on: H1299 lung cancer cell line; assay: MTT cell viability assay, H1299; format: cell-based, human; conditions: H1299 (Q61K N-Ras), 24 h
H1299 cells [5] = assay: Cellular uptake by flow cytometry; format: cell-based, human
H1299 cells [6] = assay: Live-cell confocal microscopy of internalization; format: cell-based, human; conditions: H1299, 5 μM FITC-labeled peptide, 2 h
p-MEK = assay: Immunoblot of MEK phosphorylation in H1299 cells; format: cell-based, human; conditions: H1299, 0-18 μM for 12 h, EGF 50 ng/mL 10 min
p-Akt at Thr308 = assay: Immunoblot of Akt phosphorylation in H1299 cells; format: cell-based, human; conditions: H1299, 0-18 μM for 12 h, EGF 50 ng/mL 10 min

| Compound | IC50 (K-Ras G12V [1]) [µM] | Kd (K-Ras) | lower affinity than peptide 49 (K-Ras G12V [2]; K-Ras G12V, peptide lacking the DCAI moiety) [fold] | Kd (K-Ras G12V [2]; read-out: KDapp, FA, FITC-labeled peptide 100 nM, K-Ras G12V as purified from E. coli, mixture of GTP- and GDP-bound forms) [µM] | reduction in cell viability [3] | LD50 [4] [µM] | cell entry efficiency, fold lower than cFΦR4 (H1299 cells [5]; H1299, 5 μM FITC-labeled peptide, 2 h) [fold] | cell permeability (H1299 cells [5]; tested for cellular uptake) | internalization / intracellular distribution (H1299 cells [6]) | reduction of EGF-induced p-MEK level (p-MEK) | reduction of EGF-induced p-Akt level (p-Akt at Thr308) |
| --- | --- | --- | --- | --- | --- | --- | --- | --- | --- | --- | --- |
| Cc1[nH]c2cc(Cl)cc(Cl)c2c1CCN [DCAI, 4,6-dichloro-2-methyl-3-aminoethylindole] | 840 ± 220 | 1.1 mM and ~1.1 mM |  |  |  |  |  |  |  |  |  |
| bicyclo [Tm-Ala-leu-Phe-Arg-asn-Pra-Ile-Asp-Lys-Phe-Nal-Arg-Arg-Arg-Arg-Dap]-Lys [peptide 54] |  |  | ~80 | 17 ± 11 | significant reduction in cell viability only at the highest inhibitor concentration tested | > 40 | ~3 | readily cell permeable | largely similar intracellular distribution | no effect | no effect |
